Measurements reported in US5071750A, “Enzymatic process for preparing N-acetylneuraminic acid” (Forschungszentrum Juelich GmbH, priority 1989, dated 1991).

What was measured:
[1] = target: T1, N-acylglucosamine-2-epimerase (E.C. 5.1.3.8) (Sus scrofa, UniProt P17560); assay: relative activity of the epimerase (isomerization of GlcNAc to ManNAc) in the presence of pyruvate or Neu5Ac; format: biochemical; details: as a function of the concentration of the inhibiting substance (FIG. 2A)
T1 sequence (P17560 1-402): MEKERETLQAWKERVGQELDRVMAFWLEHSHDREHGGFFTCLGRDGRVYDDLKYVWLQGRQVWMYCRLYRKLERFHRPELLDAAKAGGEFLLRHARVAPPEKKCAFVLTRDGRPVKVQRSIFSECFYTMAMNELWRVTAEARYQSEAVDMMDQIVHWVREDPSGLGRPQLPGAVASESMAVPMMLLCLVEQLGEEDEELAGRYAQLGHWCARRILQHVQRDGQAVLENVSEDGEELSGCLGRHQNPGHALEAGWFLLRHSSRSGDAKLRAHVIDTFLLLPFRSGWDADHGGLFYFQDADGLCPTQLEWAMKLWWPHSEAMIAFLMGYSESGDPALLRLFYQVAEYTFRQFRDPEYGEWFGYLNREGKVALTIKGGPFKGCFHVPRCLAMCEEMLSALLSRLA

[2] = target: N-acetylneuraminic acid pyruvate lyase (E.C. 4.1.3.3) (Escherichia coli, UniProt P0A6L4); assay: reverse reaction (cleavage of Neu5Ac) by the lyase in the presence of pyruvate; format: biochemical; details: considerable excess of pyruvate in comparison with the Neu5Ac formed (FIG. 4)
Sequence of N-acetylneuraminic acid pyruvate lyase (E.C. 4.1.3.3) (P0A6L4 whole entry): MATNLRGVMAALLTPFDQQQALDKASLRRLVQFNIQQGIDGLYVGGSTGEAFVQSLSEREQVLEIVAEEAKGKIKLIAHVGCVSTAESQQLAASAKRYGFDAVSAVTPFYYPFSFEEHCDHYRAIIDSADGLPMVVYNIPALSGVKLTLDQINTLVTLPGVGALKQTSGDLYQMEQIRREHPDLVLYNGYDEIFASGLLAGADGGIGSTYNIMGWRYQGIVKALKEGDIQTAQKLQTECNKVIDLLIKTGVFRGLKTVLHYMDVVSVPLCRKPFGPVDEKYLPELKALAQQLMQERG
Description: Because of the large excess of pyruvate, subsequent conversion of the ManNAc to Neu5Ac is promoted.
The Neu5Ac formed is, in accordance with the precision of the equilibrium, subject to more or less strong renewed cleavage by the reverse reaction. Although this reaction is inhibited by an excess of pyruvate (see FIG. 4), it appears advantageous continuously to pass reaction medium from the EMR over an ion exchange column and recycle the rest into the reactor. Alternate use of two columns is advantageous.

| Structure (SMILES) | inhibition of the epimerase-catalysed isomerization of GlcNAc to ManNAc [1] | inhibition of the reverse reaction of Neu5Ac formation [2] |
| --- | --- | --- |
| CC(=O)N[C@H]1[C@H]([C@H](O)[C@H](O)CO)OC(O)(C(=O)O)C[C@@H]1O (stereo partly drawn) [N-acetylneuraminic acid] | inhibiting effect | – |
| CC(=O)C(=O)O [pyruvic acid] | increasingly inhibited | strongly inhibited |
